Measurements: patent publication US20100173879A1, “USE OF A COMPOUND ANTAGONIST TO THE NK2 RECEPTORS OF NEUROKININ A FOR THE PREPARATION OF DRUGS USEFUL FOR PREVENTING AND TREATING OF SEXUAL DYSFUNCTION” (SANOFI-AVENTIS, priority 2007, published 2010)

System: male or female adult patients, exhibiting a major depressive disorder
Test: Eight-week multicentre double-blind clinical studies versus placebo, CSFQ questionnaire (changes in sexual functioning questionnaire)
Assay type: in vivo, human
Conditions: 100 mg per day orally for eight weeks
Method: The patients received, orally, a dose of 100 mg per day of saredutant for eight weeks, in the form of gel capsules (Example 2). he effects of saredutant compared with the placebo were evaluated using the CSFQ questionnaire (changes in sexual functioning questionnaire) comprising 14 items according to Clayton A H et al., Psychopharmacol. Bull., 1997, 33, 731-745. It is known that antidepressants have a deleterious effect on the sexual activity of patients (Montejo-Gonzales A L et al.: J. Sex Marital Ther., 1997, 23(3), 176-194). […] The table below indicates, for each group treated, the mean variation relative to the base value before treatment of the total CSFQ score and its variability between parentheses obtained over the analysis of all the studies. An increase in the total CSFQ score corresponds to an improvement in sexual function.

## CC(=O)NC1(c2ccccc2)CCN(CC[C@H](CN(C)C(=O)c2ccccc2)c2ccc(Cl)c(Cl)c2)CC1 [Saredutant, (S)-(−)-N-[4-(4-acetamido-4-phenylpiperidin-1-yl)-2-(3,4-dichlorophenyl)butyl]-N-methylbenzamide]
Versus placebo
  effect on the dysfunctions reduced sexual desire and sexual arousal disorders: beneficial effect
p<0.05
  improvement in the total CSFQ score between the last visit (56th day) and the first visit, in comparison with the placebo group: significant improvement
All patients, n = 553, analysis of all the studies, increase = improvement in sexual function, *p < 0.05 versus placebo (ANCOVA)
  Total CSFQ score, mean variation relative to the base value before treatment (variability between parentheses): 2.23 (0.64)*
